Reference: US20080027005A1, “PEPTIDES EFFECTIVE IN THE TREATMENT OF TUMORS AND OTHER CONDITIONS REQUIRING THE REMOVAL OR DESTRUCTION OF CELLS” (priority 2006, published 2008)
Where no end group is shown, it is not given here.

Test system: prostate
Assay: Effect of S05B Peptides on tissue at sites of injection: intraprostatic infusion in rats, histology and prostate volume
Assay type: in vivo, Male Sprague-Dawley rats
Conditions: for Histological findings in prostate of treated rats: rat prostate after intraprostatic infusion 1.0 mg/kg, controls minimal or absent changes; for Calculated Mean Volume (mm^3) At 7 Days / Reduction in Mean Volume Compared to Controls / Histological Changes of Cell Death at 24 Hours / Histological Changes of Cell Death at 72 Hours: rat prostate; for Calculated Mean Volume (mm^3) At 7 Days: 7 days after intraprostatic infusion 1.0 mg/kg, V=4/3π(D/2)^3 from mean cross-sectional diameters, PBS control 519; for Reduction in Mean Volume Compared to Controls: 7 days, compared to PBS injection only; for Histological Changes of Cell Death at 24 Hours / Histological Changes of Cell Death at 72 Hours: intraprostatic infusion 300 μl of 1 mg/mL in PBS pH 7.4 (1.0 mg/kg), H & E sections
Method: The purpose of this example was to determine the effect of S05B Peptides on tissue at sites of injection.
Male Sprague-Dawley rats (300 gram weight range) were anesthetized with ether and given one of the above S05B Peptides by intraprostatic infusion, a control injection of normal saline or no injection after open surgical visualization of the prostate. The injections consisted of 300 μl of the S05B Peptide 1 mg/mL in PBS pH 7.4. (1.0 mg/kg) (n=85). Rats were painlessly sacrificed after 24 hours (n=18), 72 hours (n=35) and 7 days (n=32). Prostate glands were dissected, fixed in 10% buffered formalin for 24 hours, embedded in paraffin, sectioned, and stained with H & E. For each animal the entire prostate gland was embedded and sectioned. All stained sections were examined histologically. For each prostate at least 2 histological sections were examined, and for each histological section from the 7 day group two cross-sectional diameters (D) at 90° from each other were measured (total of >8 measurements per prostate). The mean of the cross-sectional diameters (D) for each group was used to estimate volume according to V=4/3π(D/2)^3 and the mean volume calculated for each group. Histological changes were assessed on the following scale:
+++ Present, Moderate and Diffuse
++++ Present, Diffuse and Extensive

Substance: DQQVLS [S05B-2]
- Histological findings in prostate of treated rats: extensive cell death, necrosis, loss of glandular epithelium and atrophy
- Calculated Mean Volume (mm^3) At 7 Days: 289 mm^3
- Reduction in Mean Volume Compared to Controls: 44%
- Histological Changes of Cell Death at 24 Hours: +++
- Histological Changes of Cell Death at 72 Hours: +++

Substance: DQQVLSRI [S05B-3]
- Histological findings in prostate of treated rats: extensive cell death, necrosis, loss of glandular epithelium and atrophy
- Calculated Mean Volume (mm^3) At 7 Days: 289 mm^3
- Reduction in Mean Volume Compared to Controls: 44%
- Histological Changes of Cell Death at 24 Hours: +++
- Histological Changes of Cell Death at 72 Hours: +++

Substance: IDQQVL [S05B-4]
- Histological findings in prostate of treated rats: extensive cell death, necrosis, loss of glandular epithelium and atrophy
- Calculated Mean Volume (mm^3) At 7 Days: 358 mm^3
- Reduction in Mean Volume Compared to Controls: 31%
- Histological Changes of Cell Death at 24 Hours: ++
- Histological Changes of Cell Death at 72 Hours: ++
